Experimental data taken from patent publication US12440484B2, “1,3,4-oxadiazole homophthalimide derivative compounds as histone deacetylase 6 inhibitor, and the pharmaceutical composition comprising the same” (Chong Kun Dang Pharmaceutical Corp., priority 2019, dated 2025).

Columns and labels:
HDAC6 human recombinant = HDAC6 human recombinant (Homo sapiens (Human), UniProt Q9UBN7); assay: HDAC enzyme activity inhibition (in vitro), HDAC6 assay; assay type: biochemical; details: samples at 0.1, 1, 10, 100 and 1000 nM; 37° C. 60 minutes; fluorescence Ex 390, Em 460
HDAC1 = HDAC1 (Homo sapiens (Human), UniProt Q13547); assay: HDAC enzyme activity inhibition (in vitro), HDAC1 Fluorimetric Drug Discovery Assay Kit; assay type: biochemical; details: samples at 100, 1000 and 10000 nM; 37° C. 60 minutes; fluorescence Ex 390, Em 460
Sequence of HDAC1 (Q13547 whole entry): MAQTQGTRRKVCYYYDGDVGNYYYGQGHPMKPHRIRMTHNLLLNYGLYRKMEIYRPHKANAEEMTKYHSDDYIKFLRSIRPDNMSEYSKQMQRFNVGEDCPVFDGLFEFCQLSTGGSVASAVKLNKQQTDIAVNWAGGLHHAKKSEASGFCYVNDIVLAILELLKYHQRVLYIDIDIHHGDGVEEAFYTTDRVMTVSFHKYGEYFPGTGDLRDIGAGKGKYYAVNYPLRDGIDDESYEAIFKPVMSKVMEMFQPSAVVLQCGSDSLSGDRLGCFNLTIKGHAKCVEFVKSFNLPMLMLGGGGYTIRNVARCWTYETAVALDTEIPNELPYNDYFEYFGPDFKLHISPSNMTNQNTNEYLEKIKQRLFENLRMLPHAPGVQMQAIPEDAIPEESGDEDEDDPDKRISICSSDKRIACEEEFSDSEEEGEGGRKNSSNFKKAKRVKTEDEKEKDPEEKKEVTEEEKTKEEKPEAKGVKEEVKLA

Sequence of HDAC6 human recombinant (Q9UBN7 whole entry): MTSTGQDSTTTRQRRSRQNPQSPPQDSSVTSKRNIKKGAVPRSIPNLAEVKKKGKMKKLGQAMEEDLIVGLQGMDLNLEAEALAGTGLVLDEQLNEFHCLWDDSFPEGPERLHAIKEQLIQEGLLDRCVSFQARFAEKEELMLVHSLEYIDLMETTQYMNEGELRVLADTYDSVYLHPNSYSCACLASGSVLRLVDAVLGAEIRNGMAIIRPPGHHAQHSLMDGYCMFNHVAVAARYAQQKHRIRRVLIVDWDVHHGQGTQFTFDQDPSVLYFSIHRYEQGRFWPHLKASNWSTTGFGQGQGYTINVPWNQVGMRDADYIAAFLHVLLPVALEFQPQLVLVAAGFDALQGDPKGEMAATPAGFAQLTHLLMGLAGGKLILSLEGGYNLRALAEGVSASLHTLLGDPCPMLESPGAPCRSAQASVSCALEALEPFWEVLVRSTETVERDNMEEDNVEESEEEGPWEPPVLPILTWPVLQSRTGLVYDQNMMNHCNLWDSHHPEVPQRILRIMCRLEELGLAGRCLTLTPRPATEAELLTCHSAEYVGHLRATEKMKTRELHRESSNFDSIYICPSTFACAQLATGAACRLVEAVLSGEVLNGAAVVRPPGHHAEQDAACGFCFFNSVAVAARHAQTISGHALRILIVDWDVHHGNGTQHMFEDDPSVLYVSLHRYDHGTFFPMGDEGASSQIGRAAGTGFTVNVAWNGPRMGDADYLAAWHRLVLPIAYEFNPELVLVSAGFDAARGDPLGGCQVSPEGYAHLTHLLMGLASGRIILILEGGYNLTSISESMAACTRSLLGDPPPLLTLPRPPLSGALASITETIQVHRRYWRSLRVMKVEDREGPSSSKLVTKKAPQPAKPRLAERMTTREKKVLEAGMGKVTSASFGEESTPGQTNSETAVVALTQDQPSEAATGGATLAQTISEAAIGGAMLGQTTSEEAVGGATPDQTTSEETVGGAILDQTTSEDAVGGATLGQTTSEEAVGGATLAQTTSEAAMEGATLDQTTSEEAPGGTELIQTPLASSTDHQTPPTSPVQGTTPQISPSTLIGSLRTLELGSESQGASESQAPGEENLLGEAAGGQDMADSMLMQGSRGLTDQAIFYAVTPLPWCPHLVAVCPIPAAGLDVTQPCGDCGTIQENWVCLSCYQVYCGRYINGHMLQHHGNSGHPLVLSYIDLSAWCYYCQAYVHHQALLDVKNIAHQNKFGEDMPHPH

SMILES	IC50 (HDAC6 human recombinant) [nM]	IC50 (HDAC1) [nM]
CC1(C)C(=O)N(Cc2ccc(-c3nnc(C(F)F)o3)cn2)C(=O)c2ccc(N3CCN(C(C)(C)C)CC3)cc21 [Compound 36, 6-(4-(tert-butyl)piperazine-1-yl)-2-((5-(5-(difluoromethyl)-1,3,4-oxadiazole-2-yl)pyridine-2-yl)methyl)-4,4-dimethylisoquinoline-1,3(2H,4H)-dione]	24	> 10000
O=C1c2ccccc2C2(CCC2)C(=O)N1Cc1ccc(-c2nnc(C(F)F)o2)cc1F [Compound 3, 2′-(4-(5-(difluoromethyl)-1,3,4-oxadiazole-2-yl)-2-fluorobenzyl)-1′H-spiro[cyclobutane-1,4′-isoquinoline]-1′,3′(2′H)-dione]	318	> 10000
CC1(C)C(=O)N(Cc2ccc(-c3nnc(C(F)F)o3)cn2)C(=O)c2ccc(N3CCOCC3)cc21 [Compound 24, 2-((5-(5-(difluoromethyl)-1,3,4-oxadiazole-2-yl)pyridine-2-yl)methyl)-4,4-dimethyl-6-morpholinoisoquinoline-1,3(2H,4H)-dione]	21	> 10000
CN(C)CCN(C)c1ccc2c(c1)C(C)(C)C(=O)N(Cc1ccc(-c3nnc(C(F)F)o3)cn1)C2=O [Compound 38, 2-((5-(5-(difluoromethyl)-1,3,4-oxadiazole-2-yl)pyridine-2-yl)methyl)-6-((2-(dimethylamino)ethyl)(methyl)amino)-4,4-dimethylisoquinoline-1,3(2H,4H)-dione]	24	> 10000
O=c1c2ccccc2n(CCN2CCCCC2)c(=O)n1Cc1ccc(-c2nnc(C(F)F)o2)cc1 [Compound 11, 3-(4-(5-(difluoromethyl)-1,3,4-oxadiazole-2-yl)benzyl)-1-(2-(piperidine-1-yl)ethyl)quinazoline-2,4(1H,3H)-dione]	1020	> 10000
CC1(C)C(=O)N(Cc2ccc(-c3nnc(C(F)F)o3)cn2)C(=O)c2cc(C3=CC[S+]([O-])CC3)ccc21 (stereo not shown) [Compound 123, 2-((5-(5-(difluoromethyl)-1,3,4-oxadiazole-2-yl)pyridine-2-yl)methyl)-4,4-dimethyl-7-(1-oxydo-3,6-dihydro-2H-thiopyran-4-yl)isoquinoline-1,3(2H,4H)-dione]	17	> 10000
CC1(C)C(=O)N(Cc2ccc(-c3nnc(C(F)F)o3)cn2)C(=O)c2cc(C3=CCS(=O)(=NC(=O)C(F)(F)F)CC3)ccc21 (stereo not shown) [Compound 125, N-(4-(2-((5-(5-(difluoromethyl)-1,3,4-oxadiazole-2-yl)pyridine-2-yl)methyl)-4,4-dimethyl-1,3-dioxo-1,2,3,4-tetrahydroisoquinoline-7-yl)-1-oxydo-3,6-dihydro-2H-1λ^6-thiopyran-1-ylidene)-2,2,2-trifluoroacetamide]	43	> 10000
CC1(C)C(=O)N(Cc2ccc(-c3nnc(C(F)F)o3)cc2)C(=O)c2ccccc21 [Compound 6, 2-(4-(5-(difluoromethyl)-1,3,4-oxadiazole-2-yl)benzyl)-4,4-dimethylisoquinoline-1,3(2H,4H)-dione]	647	> 10000
COc1ccc(Cn2c(=O)n(Cc3ccc(-c4nnc(C(F)F)o4)cn3)c(=O)c3ccccc32)cc1 [Compound 13, 3-((5-(5-(difluoromethyl)-1,3,4-oxadiazole-2-yl)pyridine-2-yl)methyl)-1-(4-methoxybenzyl)quinazoline-2,4(1H,3H)-dione]	225	> 10000
CC1(C)C(=O)N(Cc2ccc(-c3nnc(C(F)F)o3)cn2)C(=O)c2ccc(N3CC4(COC4)C3)cc21 [Compound 40, 2-((5-(5-(difluoromethyl)-1,3,4-oxadiazole-2-yl)pyridine-2-yl)methyl)-4,4-dimethyl-6-(2-oxa-6-azaspiro[3.3]heptane-6-yl)isoquinoline-1,3(2H,4H)-dione]	22	> 10000
CN1CCN(c2ccc3c(c2)C(C)(C)C(=O)N(Cc2ccc(-c4nnc(C(F)F)o4)cn2)C3=O)CC1 [Compound 29, 2-((5-(5-(difluoromethyl)-1,3,4-oxadiazole-2-yl)pyridine-2-yl)methyl)-4,4-dimethyl-6-(4-methylpiperazine-1-yl)isoquinoline-1,3(2H,4H)-dione]	18	> 10000
O=C1c2ccccc2C(=O)N1Cc1ccc(-c2nnc(C(F)F)o2)cn1 [Compound 1, 2-((5-(5-(difluoromethyl)-1,3,4-oxadiazole-2-yl)pyridine-2-yl)methyl)isoindoline-1,3-dione]	57	> 10000
CC1(C)C(=O)N(Cc2ncc(-c3nnc(C(F)F)o3)cn2)C(=O)c2ccc(Br)cc21 [Compound 152, 6-bromo-2-((5-(5-(difluoromethyl)-1,3,4-oxadiazole-2-yl)pyrimidine-2-yl)methyl)-4,4-dimethylisoquinoline-1,3(2H,4H)-dione]	125	> 10000
CC1(C)C(=O)N(Cc2ccc(-c3nnc(C(F)F)o3)cn2)C(=O)c2ccc(-c3ccco3)cc21 [Compound 74, 2-((5-(5-(difluoromethyl)-1,3,4-oxadiazole-2-yl)pyridine-2-yl)methyl)-6-(furan-2-yl)-4,4-dimethylisoquinoline-1,3(2H,4H)-dione]	49	> 10000
